PMC5936891, “A focused library synthesis and cytotoxicity of quinones derived from the natural product bolinaquinone” (Royal Society Open Science, 2018)

Tests used:
[1] = test system: SMA (spontaneous murine astrocytoma); test: MTT in vitro growth inhibition assay, SMA; type: cell-based; conditions: Mus musculus; for inhibition at 25 µM: 25 µM of drug, 72 h, read-out: Percentage of Cell Growth Inhibition SMA; for GI50: 72 h drug exposure
From the text: (§1) With the desired bolinaquinone analogues 12–43 in hand, we examined their cytotoxicity against a panel of 11 tumour cell lines: HT29 (colon carcinoma), U87 and SJ-G2 (glioblastoma), MCF-7 (breast carcinoma), A2780 (ovarian carcinoma), H460 (lung carcinoma), A431 (skin carcinoma), Du145 (prostate carcinoma), BE2-C (neuroblastoma), MIA (pancreatic carcinoma), SMA (spontaneous murine astrocytoma) and a normal breast cell line (MCF10A). The inclusion of the MCF-10A cell line allowed a determination of a crude measure of relative toxicity while noting that the ultimate arbiter of toxicity requires in vivo evaluation. All analogues were initially screened at a 25 µM drug concentration.
(§2) Stock solutions were prepared as follows and stored at −20°C: drugs were stored as 40 mM solutions in DMSO. All cell lines were cultured in a humidified atmosphere 5% CO2 at 37°C. The cancer cell lines were maintained in Dulbecco's modified Eagle's medium (DMEM) (Trace Biosciences, Australia) supplemented with 10% fetal bovine serum, 10 mM sodium bicarbonate, penicillin (100 IU ml^−1), streptomycin (100 µg ml^−1) and glutamine (4 mM). The non-cancer MCF10A cell line was cultured in DMEM:F12 (1 : 1) cell culture media, 5% heat-inactivated horse serum, supplemented with penicillin (50 IU ml^−1), streptomycin (50 µg ml^−1), 20 mM Hepes, L-glutamine (2 mM), epidermal growth factor (20 ng ml^−1), hydrocortisone (500 ng ml^−1), cholera toxin (100 ng ml^−1) and insulin (10 ug ml^−1).
(§3) Cells in logarithmic growth were transferred to 96-well plates. Cytotoxicity was determined by plating cells in duplicate in 100 µl medium at a density of 2500–4000 cells per well. On day 0 (24 h after plating), when the cells were in logarithmic growth, 100 μl of medium with or without the test agent was added to each well. After 72 h, drug exposure growth inhibitory effects were evaluated using the MTT (3-[4,5-dimethylthiazol-2-yl]-2,5-diphenyl-tetrazolium bromide) assay and the absorbance read at 540 nm. Percentage growth inhibition was determined at a fixed drug concentration of 25 µM. A value of 100% is indicative of complete cell growth inhibition. Those analogues showing appreciable percentage growth inhibition underwent further dose–response analysis allowing for the calculation of a GI50 value. This value is the drug concentration at which cell growth is 50% inhibited based on the difference between the optical density values on day 0 and those at the end of drug exposure.

A431 (skin carcinoma) = test: MTT in vitro growth inhibition assay, A431; type: cell-based; conditions: Homo sapiens; for inhibition at 25 µM: A-431, 25 µM of drug, 72 h, read-out: Percentage of Cell Growth Inhibition A431; for GI50: A-431, 72 h, 72 h drug exposure
From the text: as §1, §2, §3

[2] = test system: MCF10A (normal breast cell line); test: MTT in vitro growth inhibition assay, MCF10A; type: cell-based; conditions: Homo sapiens, MCF-10A; for inhibition at 25 µM: 25 µM of drug, 72 h, read-out: Percentage of Cell Growth Inhibition MCF10A; for GI50: normal breast cell line, 72 h drug exposure
From the text: as §1, §2, §3

H460 (lung carcinoma) = test: MTT in vitro growth inhibition assay, H460; type: cell-based; conditions: Homo sapiens; for inhibition at 25 µM: NCI-H460, 25 µM of drug, 72 h, read-out: Percentage of Cell Growth Inhibition H460; for GI50: NCI-H460, 72 h drug exposure
From the text: as §1, §2, §3

SJ-G2 (glioblastoma) = test: MTT in vitro growth inhibition assay, SJ-G2; type: cell-based; conditions: for inhibition at 25 µM: 25 µM of drug, 72 h, read-out: Percentage of Cell Growth Inhibition SJ-G2; for GI50: 72 h drug exposure
From the text: as §1, §2, §3

[3] = test system: A2780 (ovarian carcinoma); test: MTT in vitro growth inhibition assay, A2780; type: cell-based; conditions: Homo sapiens; for inhibition at 25 µM: 25 µM of drug, 72 h, read-out: Percentage of Cell Growth Inhibition A2780; for GI50: 72 h drug exposure
From the text: as §1, §2, §3

MCF-7 (breast carcinoma) = test: MTT in vitro growth inhibition assay, MCF-7; type: cell-based; conditions: Homo sapiens; for inhibition at 25 µM: MCF7, 25 µM of drug, 72 h, read-out: Percentage of Cell Growth Inhibition MCF-7; for GI50: MCF7, 72 h drug exposure
From the text: as §1, §2, §3

HT29 (colon carcinoma) = test: MTT in vitro growth inhibition assay, HT29; type: cell-based; conditions: Homo sapiens; for inhibition at 25 µM: HT-29, 25 µM of drug, 72 h, read-out: Percentage of Cell Growth Inhibition HT29; for GI50: HT-29, 72 h drug exposure
From the text: as §1, §2, §3

[4] = test system: MIA (pancreatic carcinoma); test: MTT in vitro growth inhibition assay, MIA; type: cell-based; conditions: for inhibition at 25 µM: 25 µM of drug, 72 h, read-out: Percentage of Cell Growth Inhibition MIA; for GI50: 72 h drug exposure
From the text: as §1, §2, §3

BE2-C (neuroblastoma) = test: MTT in vitro growth inhibition assay, BE2-C; type: cell-based; conditions: Homo sapiens, BE(2)-C, 72 h; for inhibition at 25 µM: 25 µM of drug, read-out: Percentage of Cell Growth Inhibition BE2-C; for GI50: 72 h drug exposure
From the text: as §1, §2, §3

[5] = test system: Du145 (prostate carcinoma); test: MTT in vitro growth inhibition assay, Du145; type: cell-based; conditions: Homo sapiens; for inhibition at 25 µM: DU-145, 25 µM of drug, 72 h, read-out: Percentage of Cell Growth Inhibition Du145; for GI50: DU-145, 72 h, 72 h drug exposure
From the text: as §1, §2, §3

U87 (glioblastoma) = test: MTT in vitro growth inhibition assay, U87; type: cell-based; conditions: for inhibition at 25 µM: 25 µM of drug, 72 h, read-out: Percentage of Cell Growth Inhibition U87; for GI50: 72 h drug exposure
From the text: as §1, §2, §3

`COC1=CC(=O)C(OC)=C(c2ccccc2-c2ccccc2)C1=O` [compound 29, 3-Biphenyl-2-yl-2,5-dimethoxycyclohexa-2,5-diene-1,4-dione] gave an inhibition at 25 µM [1] of 72 ± 9%, a GI50 [1] of 20 ± 1.7 µM and an inhibition at 25 µM (A431 (skin carcinoma)) of 14 ± 3%. The inhibition at 25 µM [2] was 21 ± 8%, the GI50 [2] was 36 ± 3.8 µM and the inhibition at 25 µM (H460 (lung carcinoma)) was 10 ± 4%. It also gave an inhibition at 25 µM (SJ-G2 (glioblastoma)) of 38 ± 9%, a GI50 (SJ-G2 (glioblastoma)) of 31 ± 0.58 µM and an inhibition at 25 µM [3] of 77 ± 5%. For the same molecule, the GI50 [3] was 17 ± 1.2 µM, the melting point was 186 to 188 °C and the inhibition at 25 µM (MCF-7 (breast carcinoma)) was 27 ± 5%. For the same molecule, the GI50 (MCF-7 (breast carcinoma)) was 28 ± 2.6 µM, the inhibition at 25 µM (HT29 (colon carcinoma)) was 15 ± 1% and the inhibition at 25 µM [4] was less than 10%. For the same molecule, the inhibition at 25 µM (BE2-C (neuroblastoma)) was greater than 100%, the GI50 (BE2-C (neuroblastoma)) was 11 µM and the inhibition at 25 µM [5] was 10 ± 2%. The inhibition at 25 µM (U87 (glioblastoma)) was 14 ± 4%.
Molecule `CCCNC1=C(c2ccccc2)C(=O)C(NCCC)=C(c2cccc3ccccc23)C1=O` [compound 42, 2-(Naphthalene-1-yl)-5-phenyl-3,6-bis-(propylamino)cyclohexa-2,5-diene-1,4-dione] has an inhibition at 25 µM [1] of 56 ± 9%, an inhibition at 25 µM (A431 (skin carcinoma)) of 81 ± 1% and an inhibition at 25 µM [2] of 76 ± 1%. The inhibition at 25 µM (H460 (lung carcinoma)) was 63 ± 3%, the inhibition at 25 µM (SJ-G2 (glioblastoma)) was 52 ± 1% and the inhibition at 25 µM [3] was 79 ± 1%. The melting point was 226 to 228 °C, the inhibition at 25 µM (MCF-7 (breast carcinoma)) was 77 ± 4% and the inhibition at 25 µM (HT29 (colon carcinoma)) was 71 ± 3%. It also gave an inhibition at 25 µM [4] of 76 ± 2%, an inhibition at 25 µM (BE2-C (neuroblastoma)) of 56 ± 4% and an inhibition at 25 µM [5] of 70 ± 3%. It also gave an inhibition at 25 µM (U87 (glioblastoma)) of 69 ± 4%.
For `COC1=CC(=O)C(OC)=C(c2cccc3ccccc23)C1=O` [compound 25, 2,5-dimethoxy-3-(naphthalene-1-yl)cyclohexa-2,5-diene-1,4-dione], the inhibition at 25 µM [1] was 77 ± 3%, the GI50 [1] was 20 ± 1.3 µM and the inhibition at 25 µM (A431 (skin carcinoma)) was 8 ± 3%. It also gave a GI50 (A431 (skin carcinoma)) of 47 ± 6.7 µM, an inhibition at 25 µM [2] of less than 10% and an inhibition at 25 µM (H460 (lung carcinoma)) of less than 10%. It also gave an inhibition at 25 µM (SJ-G2 (glioblastoma)) of 54 ± 19%, a GI50 (SJ-G2 (glioblastoma)) of 22 ± 1.5 µM and an inhibition at 25 µM [3] of 66 ± 13%. It also gave a GI50 [3] of 21 ± 1.3 µM, a melting point of 134 to 137 °C and an inhibition at 25 µM (MCF-7 (breast carcinoma)) of 28 ± 2%. For the same molecule, the GI50 (MCF-7 (breast carcinoma)) was 29 ± 2 µM, the inhibition at 25 µM (HT29 (colon carcinoma)) was 16 ± 3% and the GI50 (HT29 (colon carcinoma)) was 43 ± 5.5 µM. For the same molecule, the inhibition at 25 µM [4] was 18 ± 4%, the GI50 [4] was 42 ± 3.5 µM and the inhibition at 25 µM (BE2-C (neuroblastoma)) was greater than 100%. It also gave a GI50 (BE2-C (neuroblastoma)) of 8 ± 0.5 µM, an inhibition at 25 µM [5] of 10 ± 5% and an inhibition at 25 µM (U87 (glioblastoma)) of 10 ± 2%.
In the case of `COC1=C(c2ccc3ccccc3c2)C(=O)C(OC)=C(c2ccc(OC)cc2OC)C1=O` [compound 34, 2,5-Dimethoxy-3-(2,4-dimethoxyphenyl)-6-(naphthalene-3-yl)cyclohexa-2,5-diene-1,4-dione], the inhibition at 25 µM [1] is reported as 98 ± 1%, the GI50 [1] is reported as 9.7 ± 0.6 µM and the inhibition at 25 µM (A431 (skin carcinoma)) is reported as 85 ± 2%. The GI50 (A431 (skin carcinoma)) was 15 ± 1 µM, the inhibition at 25 µM [2] was 99 ± 2% and the GI50 [2] was 12 ± 2.4 µM. The inhibition at 25 µM (H460 (lung carcinoma)) was 49 ± 9%, the GI50 (H460 (lung carcinoma)) was 35 ± 6.9 µM and the inhibition at 25 µM (SJ-G2 (glioblastoma)) was 83 ± 2%. It also gave a GI50 (SJ-G2 (glioblastoma)) of 16 µM, an inhibition at 25 µM [3] of 100 ± 1% and a GI50 [3] of 6.1 ± 0.03 µM. For the same molecule, the melting point was 159 to 161 °C, the inhibition at 25 µM (MCF-7 (breast carcinoma)) was greater than 100% and the GI50 (MCF-7 (breast carcinoma)) was 6.2 ± 0.31 µM. The inhibition at 25 µM (HT29 (colon carcinoma)) was 82 ± 2%, the GI50 (HT29 (colon carcinoma)) was 10.2 ± 0.3 µM and the inhibition at 25 µM [4] was 70 ± 1%. The GI50 [4] was 18 ± 0.33 µM, the inhibition at 25 µM (BE2-C (neuroblastoma)) was greater than 100% and the GI50 (BE2-C (neuroblastoma)) was 9.6 ± 0.5 µM. The inhibition at 25 µM [5] was 41 ± 3%, the GI50 [5] was 27 ± 2.5 µM and the inhibition at 25 µM (U87 (glioblastoma)) was 61 ± 4%. The GI50 (U87 (glioblastoma)) was 22 ± 2 µM.
In the case of `CCCCc1ccc(C2=C(OC)C(=O)C(c3ccc4ccccc4c3)=C(OC)C2=O)cc1` [compound 35, 2-(4-Butylphenyl)-3,6-dimethoxy-5-(naphthalene-3-yl)cyclohexa-2,5-diene-1,4-dione], the inhibition at 25 µM [1] is reported as 79 ± 5%, the GI50 [1] is reported as 8.2 ± 0.8 µM and the inhibition at 25 µM (A431 (skin carcinoma)) is reported as 49 ± 3%. For the same molecule, the GI50 (A431 (skin carcinoma)) was 26 ± 4.8 µM, the inhibition at 25 µM [2] was 47 ± 5% and the GI50 [2] was 26 ± 4.8 µM. The inhibition at 25 µM (H460 (lung carcinoma)) was 61 ± 3%, the GI50 (H460 (lung carcinoma)) was 19 ± 0.6 µM and the inhibition at 25 µM (SJ-G2 (glioblastoma)) was 67 ± 4%. The GI50 (SJ-G2 (glioblastoma)) was 16 ± 2.2 µM, the inhibition at 25 µM [3] was 66 ± 1% and the GI50 [3] was 14 ± 2 µM. The melting point was 134 to 136 °C, the inhibition at 25 µM (MCF-7 (breast carcinoma)) was 87 ± 1% and the GI50 (MCF-7 (breast carcinoma)) was 10 ± 0.6 µM. It also gave an inhibition at 25 µM (HT29 (colon carcinoma)) of 59 ± 3%, a GI50 (HT29 (colon carcinoma)) of 21 ± 2.6 µM and an inhibition at 25 µM [4] of 61 ± 2%. For the same molecule, the GI50 [4] was 18 ± 1.2 µM, the inhibition at 25 µM (BE2-C (neuroblastoma)) was 61 ± 2% and the GI50 (BE2-C (neuroblastoma)) was 23 ± 3.2 µM. For the same molecule, the inhibition at 25 µM [5] was 56 ± 2%, the GI50 [5] was 19 ± 1 µM and the inhibition at 25 µM (U87 (glioblastoma)) was 38 ± 2%. The GI50 (U87 (glioblastoma)) was 42 ± 2.8 µM.
